Measurements published in publication PMC9919490, “Synthesis and Biological Evaluation of Novel Dispiro-Indolinones with Anticancer Activity” (Molecules, 2023).

Experiment: Solubility in aqueous media (observation)
Format: physicochemical
Settings: observed in acute toxicity pilot, doses > 2500 mg/kg not feasible
Description: To select the doses, the pilot experiments were carried out on a minimum number of animals. […] When administered in large doses during autopsy in the abdominal cavities of the mice, on the inner wall and membranes of the abdominal organs, remnants of the non-absorbed drug were found in the form of white layers, indicating incomplete absorption and insufficient solubility of the agent. […] According to the data obtained from the trial experiment, in the main study—with intraperitoneal administration—a dose of 2500 mg/kg was used.

## CCOc1ccc(N2C(=O)C3(NC2=S)C(c2ccc(Cl)cc2)CN(C)C32C(=O)Nc3ccc(Br)cc32)cc1 (stereo not shown) [Compound 29]
  solubility in aqueous media: low solubility
